According to PMC3694096, “Development of Novel In Vivo Chemical Probes to Address CNS Protein Kinase Involvement in Synaptic Dysfunction” (PLoS ONE, 2013):

Experiments:
TSSK2 = biological target: T1, TSSK2 (Homo sapiens, UniProt Q96PF2); experiment: Kinome profiler screen; type: biochemical; conditions: at 20,000 nM inhibitor; kinase activity remaining
T1 construct: purchased Millipore KinaseProfiler

MSK2 = biological target: T2, MSK2 (Homo sapiens, UniProt O75676); experiment: Kinome profiler screen; type: biochemical; conditions: at 20,000 nM inhibitor; kinase activity remaining
T2 construct: purchased Millipore KinaseProfiler
T2 sequence (O75676 whole entry): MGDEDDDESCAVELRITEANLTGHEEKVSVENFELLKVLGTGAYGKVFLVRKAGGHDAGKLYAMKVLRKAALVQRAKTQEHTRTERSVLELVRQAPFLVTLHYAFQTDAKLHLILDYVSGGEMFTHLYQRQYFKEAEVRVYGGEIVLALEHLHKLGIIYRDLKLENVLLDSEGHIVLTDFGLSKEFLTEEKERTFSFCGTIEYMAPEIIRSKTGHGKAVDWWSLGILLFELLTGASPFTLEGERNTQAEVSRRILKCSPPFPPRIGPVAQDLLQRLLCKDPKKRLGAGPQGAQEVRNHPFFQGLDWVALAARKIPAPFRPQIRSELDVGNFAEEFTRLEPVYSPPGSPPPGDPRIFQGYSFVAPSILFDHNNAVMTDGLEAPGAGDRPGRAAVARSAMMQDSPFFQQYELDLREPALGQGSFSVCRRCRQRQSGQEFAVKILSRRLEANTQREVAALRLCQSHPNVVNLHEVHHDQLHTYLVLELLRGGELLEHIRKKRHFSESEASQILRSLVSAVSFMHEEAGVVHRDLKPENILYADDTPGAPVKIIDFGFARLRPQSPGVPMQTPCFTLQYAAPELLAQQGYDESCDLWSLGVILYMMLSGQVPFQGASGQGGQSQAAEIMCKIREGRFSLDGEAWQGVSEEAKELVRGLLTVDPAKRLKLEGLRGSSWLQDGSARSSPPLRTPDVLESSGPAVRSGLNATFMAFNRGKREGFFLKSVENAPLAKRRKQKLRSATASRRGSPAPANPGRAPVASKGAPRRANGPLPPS

TSSK1 = biological target: T3, TSSK1 (Homo sapiens, UniProt Q9BXA7); experiment: Kinome profiler screen; type: biochemical; conditions: at 20,000 nM inhibitor; kinase activity remaining
T3 construct: purchased Millipore KinaseProfiler
T3 sequence (Q9BXA7 whole entry): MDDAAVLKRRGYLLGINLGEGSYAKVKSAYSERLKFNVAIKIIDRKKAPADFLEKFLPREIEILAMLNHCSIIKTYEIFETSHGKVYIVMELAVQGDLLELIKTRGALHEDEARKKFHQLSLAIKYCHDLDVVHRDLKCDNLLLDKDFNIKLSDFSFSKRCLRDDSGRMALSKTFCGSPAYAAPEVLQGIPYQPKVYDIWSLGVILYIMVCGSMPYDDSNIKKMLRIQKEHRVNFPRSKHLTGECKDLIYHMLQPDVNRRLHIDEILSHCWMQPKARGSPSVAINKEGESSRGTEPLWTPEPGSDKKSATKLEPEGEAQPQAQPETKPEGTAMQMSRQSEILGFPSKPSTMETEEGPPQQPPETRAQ

HIPK1 = biological target: T4, HIPK1 (Homo sapiens, UniProt Q86Z02); experiment: Kinome profiler screen; type: biochemical; conditions: at 20,000 nM inhibitor; kinase activity remaining
T4 construct: purchased Millipore KinaseProfiler

TBK1 = biological target: T5, TBK1 (Homo sapiens, UniProt Q9UHD2); experiment: Kinome profiler screen; type: biochemical; conditions: at 20,000 nM inhibitor; kinase activity remaining
T5 construct: purchased Millipore KinaseProfiler

EphB3 = biological target: T6, EphB3 (Homo sapiens, UniProt P54753); experiment: Kinome profiler screen; type: biochemical; conditions: at 20,000 nM inhibitor; kinase activity remaining
T6 construct: purchased Millipore KinaseProfiler

PKCα = biological target: T7, PKCα (Homo sapiens, UniProt P17252); experiment: Kinome profiler screen; type: biochemical; conditions: at 20,000 nM inhibitor; kinase activity remaining
T7 construct: purchased Millipore KinaseProfiler

IKKβ = biological target: T8, IKKβ (Homo sapiens, UniProt O14920); experiment: Kinome profiler screen; type: biochemical; conditions: at 20,000 nM inhibitor; kinase activity remaining
T8 construct: purchased Millipore KinaseProfiler

ALK = biological target: T9, ALK (Homo sapiens, UniProt Q9UM73); experiment: Kinome profiler screen; type: biochemical; conditions: at 20,000 nM inhibitor; kinase activity remaining
T9 construct: purchased Millipore KinaseProfiler

CaMKIIδ = biological target: T10, CaMKIIδ (Homo sapiens, UniProt Q13557); experiment: Kinome profiler screen; type: biochemical; conditions: at 20,000 nM inhibitor; kinase activity remaining
T10 construct: purchased Millipore KinaseProfiler

PKG1α = biological target: T11, PKG1α (Homo sapiens, UniProt Q13976); experiment: Kinome profiler screen; type: biochemical; conditions: at 20,000 nM inhibitor; kinase activity remaining
T11 construct: purchased Millipore KinaseProfiler

SGK = biological target: T12, SGK (Homo sapiens, UniProt O00141); experiment: Kinome profiler screen; type: biochemical; conditions: at 20,000 nM inhibitor; kinase activity remaining
T12 construct: purchased Millipore KinaseProfiler

MAPK2 = biological target: T13, MAPK2 (Homo sapiens, UniProt P28482); experiment: Kinome profiler screen; type: biochemical; conditions: at 20,000 nM inhibitor; kinase activity remaining
T13 construct: purchased Millipore KinaseProfiler
T13 sequence (P28482 whole entry): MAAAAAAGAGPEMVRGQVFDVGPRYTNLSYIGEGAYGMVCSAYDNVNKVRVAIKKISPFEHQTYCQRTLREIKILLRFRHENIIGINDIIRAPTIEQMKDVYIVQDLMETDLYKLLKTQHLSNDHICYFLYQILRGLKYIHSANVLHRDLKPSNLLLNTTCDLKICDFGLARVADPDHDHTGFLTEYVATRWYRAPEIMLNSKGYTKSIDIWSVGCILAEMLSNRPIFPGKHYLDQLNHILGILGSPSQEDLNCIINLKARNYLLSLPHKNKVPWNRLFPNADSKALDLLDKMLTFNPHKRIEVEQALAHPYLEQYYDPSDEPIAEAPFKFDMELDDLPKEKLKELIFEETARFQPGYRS

IKKα = biological target: T14, IKKα (Homo sapiens, UniProt O15111); experiment: Kinome profiler screen; type: biochemical; conditions: at 20,000 nM inhibitor; kinase activity remaining
T14 construct: purchased Millipore KinaseProfiler
T14 sequence (O15111 whole entry): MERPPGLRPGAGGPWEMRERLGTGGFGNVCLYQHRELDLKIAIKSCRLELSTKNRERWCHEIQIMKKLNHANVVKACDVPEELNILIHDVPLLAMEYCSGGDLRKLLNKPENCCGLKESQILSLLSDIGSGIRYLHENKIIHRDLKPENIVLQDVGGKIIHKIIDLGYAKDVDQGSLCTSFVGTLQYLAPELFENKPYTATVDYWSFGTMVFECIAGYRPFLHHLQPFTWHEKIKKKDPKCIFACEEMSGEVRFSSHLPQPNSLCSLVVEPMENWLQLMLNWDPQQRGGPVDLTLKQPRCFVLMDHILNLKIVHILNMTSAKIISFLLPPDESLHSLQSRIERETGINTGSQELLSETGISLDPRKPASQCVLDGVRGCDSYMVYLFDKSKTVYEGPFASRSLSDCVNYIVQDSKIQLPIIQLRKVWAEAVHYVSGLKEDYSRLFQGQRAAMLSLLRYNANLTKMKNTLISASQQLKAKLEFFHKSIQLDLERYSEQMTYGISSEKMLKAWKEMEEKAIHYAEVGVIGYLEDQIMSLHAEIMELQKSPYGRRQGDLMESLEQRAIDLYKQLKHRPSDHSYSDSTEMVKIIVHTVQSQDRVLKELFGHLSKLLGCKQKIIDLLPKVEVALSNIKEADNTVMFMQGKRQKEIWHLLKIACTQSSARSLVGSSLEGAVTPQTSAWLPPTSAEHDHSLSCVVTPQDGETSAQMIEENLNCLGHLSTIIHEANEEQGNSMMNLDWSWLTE

MKK7β = biological target: T15, MKK7β (Homo sapiens, UniProt O14733); experiment: Kinome profiler screen; type: biochemical; conditions: at 20,000 nM inhibitor; kinase activity remaining
T15 construct: purchased Millipore KinaseProfiler

PKBβ = biological target: T16, PKBβ (Homo sapiens, UniProt P31751); experiment: Kinome profiler screen; type: biochemical; conditions: at 20,000 nM inhibitor; kinase activity remaining
T16 construct: purchased Millipore KinaseProfiler

Fer = biological target: T17, Fer (Homo sapiens, UniProt P16591); experiment: Kinome profiler screen; type: biochemical; conditions: at 20,000 nM inhibitor; kinase activity remaining
T17 construct: purchased Millipore KinaseProfiler

Met(D1246H) = biological target: T18, Met(D1246H) (Homo sapiens, UniProt P08581, D1228H); experiment: Kinome profiler screen; type: biochemical; conditions: at 20,000 nM inhibitor; kinase activity remaining
T18 construct: purchased Millipore KinaseProfiler

EphA7 = biological target: T19, EphA7 (Homo sapiens, UniProt Q15375); experiment: Kinome profiler screen; type: biochemical; conditions: for activity at 20 µM: at 20,000 nM inhibitor, kinase activity remaining
T19 construct: purchased Millipore
T19 sequence (Q15375 28-998): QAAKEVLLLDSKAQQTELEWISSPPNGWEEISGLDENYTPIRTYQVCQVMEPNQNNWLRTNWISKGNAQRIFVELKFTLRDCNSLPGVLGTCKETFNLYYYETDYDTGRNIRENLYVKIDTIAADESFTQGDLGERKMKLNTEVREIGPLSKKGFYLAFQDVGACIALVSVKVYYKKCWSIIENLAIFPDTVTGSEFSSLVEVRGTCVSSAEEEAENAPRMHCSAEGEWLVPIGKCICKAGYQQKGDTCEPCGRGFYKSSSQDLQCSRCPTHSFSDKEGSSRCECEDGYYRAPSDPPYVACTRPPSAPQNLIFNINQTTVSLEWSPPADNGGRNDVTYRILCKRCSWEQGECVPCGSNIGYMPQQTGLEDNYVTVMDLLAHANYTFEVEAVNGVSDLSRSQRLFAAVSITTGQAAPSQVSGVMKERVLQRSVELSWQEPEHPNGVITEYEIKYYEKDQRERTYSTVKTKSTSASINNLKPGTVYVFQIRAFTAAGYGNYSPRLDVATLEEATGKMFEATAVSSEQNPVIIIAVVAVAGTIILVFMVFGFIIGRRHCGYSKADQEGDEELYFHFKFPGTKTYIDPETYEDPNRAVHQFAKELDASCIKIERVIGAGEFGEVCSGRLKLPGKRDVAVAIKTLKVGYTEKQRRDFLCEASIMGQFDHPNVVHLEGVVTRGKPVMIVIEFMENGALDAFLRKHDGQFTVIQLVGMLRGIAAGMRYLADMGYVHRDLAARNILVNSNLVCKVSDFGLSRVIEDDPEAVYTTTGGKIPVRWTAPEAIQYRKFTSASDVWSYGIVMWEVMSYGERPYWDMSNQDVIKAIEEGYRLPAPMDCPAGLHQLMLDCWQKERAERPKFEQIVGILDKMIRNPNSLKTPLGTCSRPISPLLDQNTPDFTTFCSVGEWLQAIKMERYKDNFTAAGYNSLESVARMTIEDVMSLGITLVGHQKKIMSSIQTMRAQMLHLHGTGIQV

[1] = tested on: visual, motor and motivation deficits; experiment: Visible platform test; type: in vivo, C57BL/6J mice; conditions: control test
TAO1 = biological target: T20, TAO1 (Homo sapiens, UniProt Q7L7X3); experiment: Kinome profiler screen; type: biochemical; conditions: at 20,000 nM inhibitor; kinase activity remaining
T20 construct: purchased Millipore KinaseProfiler

ALK4 = biological target: T21, ALK4 (Homo sapiens, UniProt P36896); experiment: Kinome profiler screen; type: biochemical; conditions: at 20,000 nM inhibitor; kinase activity remaining
T21 construct: purchased Millipore KinaseProfiler

PKCε = biological target: T22, PKCε (Homo sapiens, UniProt Q02156); experiment: Kinome profiler screen; type: biochemical; conditions: at 20,000 nM inhibitor; kinase activity remaining
T22 construct: purchased Millipore KinaseProfiler

PhKγ2 = biological target: T23, PhKγ2 (Homo sapiens, UniProt P15735); experiment: Kinome profiler screen; type: biochemical; conditions: at 20,000 nM inhibitor; kinase activity remaining
T23 construct: purchased Millipore KinaseProfiler

Ros = biological target: T24, Ros (Homo sapiens, UniProt P08922); experiment: Kinome profiler screen; type: biochemical; conditions: at 20,000 nM inhibitor; kinase activity remaining
T24 construct: purchased Millipore KinaseProfiler

Ret = biological target: T25, Ret (Homo sapiens, UniProt P07949); experiment: Kinome profiler screen; type: biochemical; conditions: at 20,000 nM inhibitor; kinase activity remaining
T25 construct: purchased Millipore KinaseProfiler

EGFR = biological target: T26, EGFR (Homo sapiens, UniProt P00533); experiment: Kinome profiler screen; type: biochemical; conditions: at 20,000 nM inhibitor; kinase activity remaining
T26 construct: purchased Millipore KinaseProfiler
T26 sequence (P00533 25-1210): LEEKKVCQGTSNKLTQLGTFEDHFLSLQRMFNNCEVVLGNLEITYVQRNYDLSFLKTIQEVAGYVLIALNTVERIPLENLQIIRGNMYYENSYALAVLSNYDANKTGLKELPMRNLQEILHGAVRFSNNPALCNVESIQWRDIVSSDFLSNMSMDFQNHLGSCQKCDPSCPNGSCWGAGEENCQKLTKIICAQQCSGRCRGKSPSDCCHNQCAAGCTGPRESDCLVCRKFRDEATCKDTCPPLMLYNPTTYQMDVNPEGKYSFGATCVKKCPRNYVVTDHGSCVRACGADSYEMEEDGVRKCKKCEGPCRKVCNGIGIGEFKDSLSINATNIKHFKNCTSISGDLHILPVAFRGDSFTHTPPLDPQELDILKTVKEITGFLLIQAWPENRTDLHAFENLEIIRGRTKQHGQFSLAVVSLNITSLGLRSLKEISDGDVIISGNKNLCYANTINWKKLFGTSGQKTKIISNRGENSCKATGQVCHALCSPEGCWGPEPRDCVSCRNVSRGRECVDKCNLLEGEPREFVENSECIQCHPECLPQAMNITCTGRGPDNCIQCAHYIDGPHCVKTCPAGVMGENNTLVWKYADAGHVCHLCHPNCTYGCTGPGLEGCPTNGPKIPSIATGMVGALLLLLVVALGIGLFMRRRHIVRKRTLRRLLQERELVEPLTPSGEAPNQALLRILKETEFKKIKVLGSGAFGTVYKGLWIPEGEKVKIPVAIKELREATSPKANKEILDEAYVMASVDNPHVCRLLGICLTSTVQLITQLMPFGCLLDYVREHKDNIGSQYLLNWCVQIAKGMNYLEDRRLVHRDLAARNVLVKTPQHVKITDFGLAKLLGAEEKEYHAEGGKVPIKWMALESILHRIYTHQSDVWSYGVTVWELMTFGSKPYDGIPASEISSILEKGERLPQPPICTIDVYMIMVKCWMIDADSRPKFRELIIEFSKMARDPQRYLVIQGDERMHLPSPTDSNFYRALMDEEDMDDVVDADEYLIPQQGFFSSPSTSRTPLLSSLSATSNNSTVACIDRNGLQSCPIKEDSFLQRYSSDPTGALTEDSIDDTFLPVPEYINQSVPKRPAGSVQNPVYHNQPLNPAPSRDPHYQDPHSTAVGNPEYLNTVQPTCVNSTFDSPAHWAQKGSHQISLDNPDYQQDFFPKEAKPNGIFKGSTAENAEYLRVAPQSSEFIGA

MSK1 = biological target: T27, MSK1 (Homo sapiens, UniProt O75582); experiment: Kinome profiler screen; type: biochemical; conditions: at 20,000 nM inhibitor; kinase activity remaining
T27 construct: purchased Millipore KinaseProfiler

NEK6 = biological target: T28, NEK6 (Homo sapiens, UniProt Q9HC98); experiment: Kinome profiler screen; type: biochemical; conditions: at 20,000 nM inhibitor; kinase activity remaining
T28 construct: purchased Millipore KinaseProfiler

MKK4(m) = biological target: T29, MKK4(m) (Mus musculus, UniProt P47809); experiment: Kinome profiler screen; type: biochemical; conditions: at 20,000 nM inhibitor; kinase activity remaining
T29 construct: purchased Millipore KinaseProfiler

IGF-1R, activated = biological target: T30, IGF-1R, activated (Homo sapiens, UniProt P08069); experiment: Kinome profiler screen; type: biochemical; conditions: at 20,000 nM inhibitor; kinase activity remaining
T30 construct: purchased Millipore KinaseProfiler

[2] = biological target: T31, PI3 Kinase (p110α (E545K)/p85α)(m) (Mus musculus, UniProt P42337, E545K); experiment: Kinome profiler screen; type: biochemical; conditions: at 20,000 nM inhibitor; kinase activity remaining
T31 construct: purchased Millipore KinaseProfiler

PRAK = biological target: T32, PRAK (Homo sapiens, UniProt Q8IW41); experiment: Kinome profiler screen; type: biochemical; conditions: at 20,000 nM inhibitor; kinase activity remaining
T32 construct: purchased Millipore KinaseProfiler

BTK = biological target: T33, BTK (Homo sapiens, UniProt Q06187); experiment: Kinome profiler screen; type: biochemical; conditions: at 20,000 nM inhibitor; kinase activity remaining
T33 construct: purchased Millipore KinaseProfiler
T33 sequence (Q06187 whole entry): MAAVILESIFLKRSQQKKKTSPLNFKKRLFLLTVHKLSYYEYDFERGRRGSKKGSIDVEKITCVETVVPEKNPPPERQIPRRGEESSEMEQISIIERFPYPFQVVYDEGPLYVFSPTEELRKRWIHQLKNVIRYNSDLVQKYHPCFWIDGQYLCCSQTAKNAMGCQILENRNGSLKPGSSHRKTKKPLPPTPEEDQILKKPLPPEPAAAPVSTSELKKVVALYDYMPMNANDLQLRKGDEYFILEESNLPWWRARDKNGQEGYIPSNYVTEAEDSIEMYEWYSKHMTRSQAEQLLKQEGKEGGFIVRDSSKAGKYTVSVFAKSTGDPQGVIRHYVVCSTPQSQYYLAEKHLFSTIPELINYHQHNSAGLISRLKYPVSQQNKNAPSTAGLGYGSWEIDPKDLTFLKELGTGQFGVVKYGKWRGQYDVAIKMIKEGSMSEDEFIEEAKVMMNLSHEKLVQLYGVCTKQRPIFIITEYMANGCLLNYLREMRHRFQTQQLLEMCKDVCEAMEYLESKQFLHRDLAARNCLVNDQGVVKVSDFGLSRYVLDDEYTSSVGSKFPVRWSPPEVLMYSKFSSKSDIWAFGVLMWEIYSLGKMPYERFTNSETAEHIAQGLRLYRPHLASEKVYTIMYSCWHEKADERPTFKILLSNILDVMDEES

[3] = tested on: CA3-CA1 long-term potentiation; experiment: LTP in Aβ42-treated hippocampal brain slices; parameters: species or system mice; conditions: 10 µM compound, 200 nM Aβ42
Abl (H396P) = biological target: T34, Abl (H396P) (Homo sapiens, UniProt P00519, H396P); experiment: Kinome profiler screen; type: biochemical; conditions: at 20,000 nM inhibitor; kinase activity remaining
T34 construct: purchased Millipore KinaseProfiler

EphA5 = biological target: T35, EphA5 (Homo sapiens, UniProt P54756); experiment: Kinome profiler screen; type: biochemical; conditions: at 20,000 nM inhibitor; kinase activity remaining
T35 construct: purchased Millipore KinaseProfiler

IRR = biological target: T36, IRR (Homo sapiens, UniProt P14616); experiment: Kinome profiler screen; type: biochemical; conditions: at 20,000 nM inhibitor; kinase activity remaining
T36 construct: purchased Millipore KinaseProfiler

Compound | activity at 20 µM (TSSK2) [%] | activity at 20 µM (MSK2) [%] | activity at 20 µM (TSSK1) [%] | activity at 20 µM (HIPK1) [%] | activity at 20 µM (TBK1) [%] | activity at 20 µM (EphB3) [%] | activity at 20 µM (PKCα) [%] | activity at 20 µM (IKKβ) [%] | activity at 20 µM (ALK) [%] | activity at 20 µM (CaMKIIδ) [%] | activity at 20 µM (PKG1α) [%] | activity at 20 µM (SGK) [%] | activity at 20 µM (MAPK2) [%] | activity at 20 µM (IKKα) [%] | activity at 20 µM (MKK7β) [%] | activity at 20 µM (PKBβ) [%] | activity at 20 µM (Fer) [%] | activity at 20 µM (Met(D1246H)) [%] | activity at 20 µM (EphA7) [%] | visible platform test, speed and time to the platform [1] | also measured
CN(C)c1cc(-c2ccncc2)c(-c2cccc3ccccc23)nn1 [MW181, N,N-dimethyl-6-(naphthalen-1-yl)-5-(pyridin-4-yl)pyridazin-3-amine] | 107 | 99 | 88 | 107 | 98 | 102 | 86 | 88 | 107 | 106 | 97 | 88 | 97 | 112 | 116 | 102 | 92 | 102 | 77 | No difference was detected between groups | activity at 20 µM (TAO1): 98%; activity at 20 µM (ALK4): 101%; activity at 20 µM (PKCε): 98%; activity at 20 µM (PhKγ2): 93%; activity at 20 µM (Ros): 110%; activity at 20 µM (Ret): 118%; activity at 20 µM (EGFR): 103%; activity at 20 µM (MSK1): 106%; activity at 20 µM (NEK6): 92%; activity at 20 µM (MKK4(m)): 91%; activity at 20 µM (IGF-1R, activated): 87%; activity at 20 µM [2]: 99%; activity at 20 µM (PRAK): 105%; activity at 20 µM (BTK): 98%; LTP deficit in Aβ42-treated slices [3]: ameliorated the LTP deficit; activity at 20 µM (Abl (H396P)): 101%; activity at 20 µM (EphA5): 101%; activity at 20 µM (IRR): 108%
CN(C)c1cc(-c2ccncc2)c(-c2ccc3ccccc3c2)nn1 [MW108, N, N-dimethyl-6-(naphthalen-2-yl)-5-(pyridin-4-yl)pyridazin-3-amine] | 101 | 91 | 101 | 98 | 96 | 96 | 92 | 98 | 105 | 100 | 93 | 88 | 113 | 105 | 122 | 98 | 97 | 94 | 35 | No difference was detected between groups | IC50 (EphA7): 18.9 µM; activity at 20 µM (TAO1): 92%; activity at 20 µM (ALK4): 95%; activity at 20 µM (PKCε): 90%; activity at 20 µM (PhKγ2): 98%; activity at 20 µM (Ros): 87%; activity at 20 µM (Ret): 94%; activity at 20 µM (EGFR): 79%; activity at 20 µM (MSK1): 97%; activity at 20 µM (NEK6): 103%; activity at 20 µM (MKK4(m)): 108%; activity at 20 µM (IGF-1R, activated): 104%; activity at 20 µM [2]: 99%; activity at 20 µM (PRAK): 94%; activity at 20 µM (BTK): 97%; LTP deficit in Aβ42-treated slices [3]: ameliorated the LTP deficit; activity at 20 µM (Abl (H396P)): 94%; activity at 20 µM (EphA5): 100%; activity at 20 µM (IRR): 94%
